In ChEMBL document CHEMBL1201862, “PubChem BioAssay data set” (2004):
The source made the active and inactive calls.

Tests used:
[1] = target: T1, Heat shock factor protein 1 (Mus musculus, UniProt P38532); test: enhancement of HSF1-driven luciferase signal – cell-based, NIH3T3, luminescence, dose retest, confirmation (AID 435004); format: functional;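 also: stress induced by proteasome inhibitor MG132 added 30 min after compound; luciferase reporter driven by HSF1 response element in NIH3T3 cells; actives raise luminescence as potentiators of the MG132 stress response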
T1 sequence (P38532 whole entry): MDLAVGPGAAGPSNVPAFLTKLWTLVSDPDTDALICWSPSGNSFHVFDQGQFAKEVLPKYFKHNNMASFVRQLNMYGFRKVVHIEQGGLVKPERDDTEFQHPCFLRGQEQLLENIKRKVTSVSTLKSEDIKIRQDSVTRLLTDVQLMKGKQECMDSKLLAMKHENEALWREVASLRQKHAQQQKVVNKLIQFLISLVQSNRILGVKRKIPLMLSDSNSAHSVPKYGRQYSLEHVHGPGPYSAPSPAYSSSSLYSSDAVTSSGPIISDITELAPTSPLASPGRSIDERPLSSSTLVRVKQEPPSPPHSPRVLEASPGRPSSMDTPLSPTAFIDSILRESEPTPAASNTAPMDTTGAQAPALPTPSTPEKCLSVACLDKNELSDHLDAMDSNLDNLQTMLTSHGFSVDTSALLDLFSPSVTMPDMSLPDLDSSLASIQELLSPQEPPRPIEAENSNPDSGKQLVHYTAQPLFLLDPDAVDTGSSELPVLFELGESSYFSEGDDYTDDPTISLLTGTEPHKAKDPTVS

[2] = cells; format: functional
[3] = target: Melanocortin receptor 4 (Homo sapiens, UniProt P32245); test: inhibitors of MC4R cAMP signaling – cell-based, TR-FRET, biased antagonists, dose response (AID 602298); format: functional;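 also: antagonist potency against agonist-stimulated cAMP production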
[4] = cAMP pathway inhibition in counterscreen cell line – TR-FRET cAMP detection, counter-screen for MC4R biased antagonist project, dose response (AID 602305); format: functional, cell-based;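 also: U2OS cells stimulated with forskolin near its EC80 as the cAMP inducer; potency is for inhibition of forskolin-stimulated cAMP signaling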
[5] = target: T2, Histone-lysine N-methyltransferase NSD2 (Homo sapiens, UniProt O96028); format: biochemical
T2 sequence (O96028 whole entry): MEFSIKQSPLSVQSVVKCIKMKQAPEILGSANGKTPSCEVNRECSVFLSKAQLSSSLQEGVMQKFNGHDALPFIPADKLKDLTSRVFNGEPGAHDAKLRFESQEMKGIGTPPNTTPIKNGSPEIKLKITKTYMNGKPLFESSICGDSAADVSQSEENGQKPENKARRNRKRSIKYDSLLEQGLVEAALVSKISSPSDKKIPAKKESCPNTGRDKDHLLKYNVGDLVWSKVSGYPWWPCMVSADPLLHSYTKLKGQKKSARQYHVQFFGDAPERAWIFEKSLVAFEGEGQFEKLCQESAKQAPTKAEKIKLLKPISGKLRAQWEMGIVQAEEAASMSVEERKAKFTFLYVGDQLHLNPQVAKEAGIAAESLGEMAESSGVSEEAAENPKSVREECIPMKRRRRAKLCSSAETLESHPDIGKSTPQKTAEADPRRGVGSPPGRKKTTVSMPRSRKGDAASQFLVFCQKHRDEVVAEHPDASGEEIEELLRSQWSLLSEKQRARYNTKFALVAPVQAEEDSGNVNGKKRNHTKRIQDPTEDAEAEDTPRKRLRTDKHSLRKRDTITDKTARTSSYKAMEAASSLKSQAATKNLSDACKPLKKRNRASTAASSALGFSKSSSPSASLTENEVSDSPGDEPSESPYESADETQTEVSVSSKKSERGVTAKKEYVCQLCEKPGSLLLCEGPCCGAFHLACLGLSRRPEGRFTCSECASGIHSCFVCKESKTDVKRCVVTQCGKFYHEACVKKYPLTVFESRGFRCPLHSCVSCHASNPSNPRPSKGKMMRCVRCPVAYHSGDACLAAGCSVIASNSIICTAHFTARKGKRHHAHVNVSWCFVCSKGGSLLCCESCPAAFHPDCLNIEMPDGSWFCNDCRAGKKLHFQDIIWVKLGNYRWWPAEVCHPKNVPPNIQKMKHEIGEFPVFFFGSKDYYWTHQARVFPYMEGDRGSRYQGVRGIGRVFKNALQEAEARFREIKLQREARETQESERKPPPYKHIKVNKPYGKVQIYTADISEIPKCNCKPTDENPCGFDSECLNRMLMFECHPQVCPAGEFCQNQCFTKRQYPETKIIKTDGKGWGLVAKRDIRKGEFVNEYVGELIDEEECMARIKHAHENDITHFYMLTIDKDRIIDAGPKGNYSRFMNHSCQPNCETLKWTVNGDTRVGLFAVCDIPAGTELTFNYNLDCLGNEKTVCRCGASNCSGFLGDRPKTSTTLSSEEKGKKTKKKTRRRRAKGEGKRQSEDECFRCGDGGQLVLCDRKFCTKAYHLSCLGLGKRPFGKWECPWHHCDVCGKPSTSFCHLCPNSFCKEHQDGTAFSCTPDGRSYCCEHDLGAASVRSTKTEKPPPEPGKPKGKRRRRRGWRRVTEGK

[6] = Vero cell cytotoxicity, dose response, cytotoxicity control for M. tuberculosis growth inhibitor project, Vero cells, purified and synthesized compounds, set 5 (AID 504909); format: functional; settings: Mycobacterium tuberculosis
[7] = Vero cell cytotoxicity, cytotoxicity control for M. tuberculosis inhibitor project, purified and synthesized samples, set 3 (AID 504684); format: functional
[8] = THP-1 cell cytotoxicity, cytotoxicity control, set 4 (AID 504911); format: functional; settings: Mycobacterium tuberculosis
[9] = THP-1 cell cytotoxicity, dose response, cytotoxicity control, set 3 (AID 504852); format: functional; settings: Mycobacterium tuberculosis
[10] = Vero cell cytotoxicity, dose response, cytotoxicity control for M. tuberculosis growth inhibitor project, Vero cells, purified and synthesized compounds, set 4 (AID 504854); format: functional; settings: Mycobacterium tuberculosis
[11] = target: T3, Activin receptor type-1 (Homo sapiens, UniProt Q04771); test: Navigating the Kinome. Panel member name: ACVR1; format: functional
T3 sequence (Q04771 whole entry): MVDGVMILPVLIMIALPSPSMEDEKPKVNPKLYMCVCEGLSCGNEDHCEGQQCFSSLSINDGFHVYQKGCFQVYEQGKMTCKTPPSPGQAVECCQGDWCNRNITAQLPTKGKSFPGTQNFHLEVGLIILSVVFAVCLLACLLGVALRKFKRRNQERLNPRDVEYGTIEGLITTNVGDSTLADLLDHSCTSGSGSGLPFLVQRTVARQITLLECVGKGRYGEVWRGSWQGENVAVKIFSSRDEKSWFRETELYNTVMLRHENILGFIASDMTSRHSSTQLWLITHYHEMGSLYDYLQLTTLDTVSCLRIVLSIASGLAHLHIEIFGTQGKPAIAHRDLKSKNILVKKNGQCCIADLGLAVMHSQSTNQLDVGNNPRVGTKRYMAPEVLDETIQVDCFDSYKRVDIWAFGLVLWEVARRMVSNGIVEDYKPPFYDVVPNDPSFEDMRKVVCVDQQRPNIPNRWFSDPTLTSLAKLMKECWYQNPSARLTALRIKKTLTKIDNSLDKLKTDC

[12] = target: Mitogen-activated protein kinase 8 (Homo sapiens, UniProt P45983); format: functional;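 also: value comes from one member of a kinome-wide kinase profiling panel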
[13] = target: Fibroblast growth factor receptor 1 (Homo sapiens, UniProt P11362); format: functional
[14] = target: Casein kinase I isoform alpha (Homo sapiens, UniProt P48729); format: functional
[15] = target: LIM domain kinase 1 (Homo sapiens, UniProt P53667); test: Navigating the Kinome. Panel member name: LIMK1; format: functional
[16] = target: Activated CDC42 kinase 1 (Homo sapiens, UniProt Q07912); test: Navigating the Kinome. Panel member name: ACK1; format: functional
[17] = target: Vascular endothelial growth factor receptor 2 (Homo sapiens, UniProt P35968); format: functional
[18] = target: Cyclin-dependent kinase 5 (Homo sapiens, UniProt Q00535); format: functional;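 also: CDK5 measured as one member of a kinase profiling panel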
[19] = target: Dual specificity tyrosine-phosphorylation-regulated kinase 1B (Homo sapiens, UniProt Q9Y463); test: Navigating the Kinome. Panel member name: DYRK1B; format: functional
[20] = target: Platelet-derived growth factor receptor alpha (Homo sapiens, UniProt P16234); test: Navigating the Kinome. Panel member name: PDGFRA; format: functional
[21] = target: Aurora kinase B (Homo sapiens, UniProt Q96GD4); format: functional
[22] = target: Dual specificity protein kinase CLK4 (Homo sapiens, UniProt Q9HAZ1); format: functional
[23] = target: Mitogen-activated protein kinase kinase kinase kinase 4 (Homo sapiens, UniProt O95819); format: functional
[24] = target: Macrophage colony-stimulating factor 1 receptor (Homo sapiens, UniProt P07333); format: functional;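 also: value comes from the Navigating the Kinome screening panel, CSF1R member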
[25] = target: Leukocyte tyrosine kinase receptor (Homo sapiens, UniProt P29376); test: Navigating the Kinome. Panel member name: LTK; format: functional
[26] = target: Mitogen-activated protein kinase 13 (Homo sapiens, UniProt O15264); format: functional

Vascular endothelial growth factor receptor 2, sequence (P35968 whole entry): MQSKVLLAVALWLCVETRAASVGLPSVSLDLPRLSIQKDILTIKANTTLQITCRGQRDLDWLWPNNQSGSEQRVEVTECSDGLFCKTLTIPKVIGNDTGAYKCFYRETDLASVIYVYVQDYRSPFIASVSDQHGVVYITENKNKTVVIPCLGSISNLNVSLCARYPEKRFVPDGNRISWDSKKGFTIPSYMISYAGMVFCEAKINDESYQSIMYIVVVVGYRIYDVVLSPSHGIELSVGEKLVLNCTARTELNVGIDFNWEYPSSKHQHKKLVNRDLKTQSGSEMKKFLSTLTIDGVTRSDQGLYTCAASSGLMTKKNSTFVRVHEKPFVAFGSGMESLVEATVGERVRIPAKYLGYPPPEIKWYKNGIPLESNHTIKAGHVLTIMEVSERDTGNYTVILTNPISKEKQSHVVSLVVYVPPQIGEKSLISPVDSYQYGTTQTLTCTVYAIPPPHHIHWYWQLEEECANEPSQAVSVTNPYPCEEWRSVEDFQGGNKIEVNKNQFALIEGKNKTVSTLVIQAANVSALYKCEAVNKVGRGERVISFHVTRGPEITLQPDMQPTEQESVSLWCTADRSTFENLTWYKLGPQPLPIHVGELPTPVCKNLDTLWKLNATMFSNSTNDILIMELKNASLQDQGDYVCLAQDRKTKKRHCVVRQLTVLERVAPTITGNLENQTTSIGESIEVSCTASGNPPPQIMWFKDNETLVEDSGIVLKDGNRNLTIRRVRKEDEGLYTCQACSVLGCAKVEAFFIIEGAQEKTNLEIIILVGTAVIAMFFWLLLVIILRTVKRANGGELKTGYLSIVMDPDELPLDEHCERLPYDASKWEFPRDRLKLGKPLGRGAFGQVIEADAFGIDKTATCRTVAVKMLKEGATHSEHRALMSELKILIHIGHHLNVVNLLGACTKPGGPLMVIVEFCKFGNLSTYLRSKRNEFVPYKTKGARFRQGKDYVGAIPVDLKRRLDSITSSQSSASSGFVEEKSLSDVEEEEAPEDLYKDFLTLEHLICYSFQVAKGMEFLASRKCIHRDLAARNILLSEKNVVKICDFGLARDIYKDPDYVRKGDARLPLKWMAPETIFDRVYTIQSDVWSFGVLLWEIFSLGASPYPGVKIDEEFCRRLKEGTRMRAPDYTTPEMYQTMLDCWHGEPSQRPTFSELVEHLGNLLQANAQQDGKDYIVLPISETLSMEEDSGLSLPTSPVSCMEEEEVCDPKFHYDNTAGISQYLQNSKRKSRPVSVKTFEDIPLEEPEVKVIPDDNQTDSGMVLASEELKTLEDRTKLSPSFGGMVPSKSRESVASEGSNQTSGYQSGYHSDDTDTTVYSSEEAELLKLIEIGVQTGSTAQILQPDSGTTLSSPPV
Casein kinase I isoform alpha, sequence (P48729 whole entry, the tested form may be a part, canonical isoform): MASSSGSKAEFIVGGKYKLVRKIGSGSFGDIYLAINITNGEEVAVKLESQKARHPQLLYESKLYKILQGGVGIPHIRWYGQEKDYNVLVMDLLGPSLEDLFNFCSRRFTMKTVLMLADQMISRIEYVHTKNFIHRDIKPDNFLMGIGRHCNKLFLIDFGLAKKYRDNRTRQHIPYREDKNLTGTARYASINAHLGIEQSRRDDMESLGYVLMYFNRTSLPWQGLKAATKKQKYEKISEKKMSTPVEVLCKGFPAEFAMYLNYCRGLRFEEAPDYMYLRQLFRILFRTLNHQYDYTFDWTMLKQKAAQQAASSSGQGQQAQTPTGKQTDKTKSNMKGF
Dual specificity protein kinase CLK4, sequence (Q9HAZ1 whole entry): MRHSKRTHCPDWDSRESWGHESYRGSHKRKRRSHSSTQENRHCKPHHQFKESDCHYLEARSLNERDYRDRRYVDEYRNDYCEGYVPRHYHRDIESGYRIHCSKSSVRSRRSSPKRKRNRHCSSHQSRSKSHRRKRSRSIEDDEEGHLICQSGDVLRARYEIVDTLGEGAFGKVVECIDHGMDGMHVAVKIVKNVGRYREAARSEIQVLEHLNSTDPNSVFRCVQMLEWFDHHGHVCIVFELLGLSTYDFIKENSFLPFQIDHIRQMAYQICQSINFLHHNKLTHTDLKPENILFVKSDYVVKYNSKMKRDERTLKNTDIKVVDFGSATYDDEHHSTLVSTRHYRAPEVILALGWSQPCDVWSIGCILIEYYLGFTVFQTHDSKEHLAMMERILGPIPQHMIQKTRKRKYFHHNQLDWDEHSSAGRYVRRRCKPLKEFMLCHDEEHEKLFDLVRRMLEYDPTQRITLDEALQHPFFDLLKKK
Platelet-derived growth factor receptor alpha, sequence (P16234 whole entry): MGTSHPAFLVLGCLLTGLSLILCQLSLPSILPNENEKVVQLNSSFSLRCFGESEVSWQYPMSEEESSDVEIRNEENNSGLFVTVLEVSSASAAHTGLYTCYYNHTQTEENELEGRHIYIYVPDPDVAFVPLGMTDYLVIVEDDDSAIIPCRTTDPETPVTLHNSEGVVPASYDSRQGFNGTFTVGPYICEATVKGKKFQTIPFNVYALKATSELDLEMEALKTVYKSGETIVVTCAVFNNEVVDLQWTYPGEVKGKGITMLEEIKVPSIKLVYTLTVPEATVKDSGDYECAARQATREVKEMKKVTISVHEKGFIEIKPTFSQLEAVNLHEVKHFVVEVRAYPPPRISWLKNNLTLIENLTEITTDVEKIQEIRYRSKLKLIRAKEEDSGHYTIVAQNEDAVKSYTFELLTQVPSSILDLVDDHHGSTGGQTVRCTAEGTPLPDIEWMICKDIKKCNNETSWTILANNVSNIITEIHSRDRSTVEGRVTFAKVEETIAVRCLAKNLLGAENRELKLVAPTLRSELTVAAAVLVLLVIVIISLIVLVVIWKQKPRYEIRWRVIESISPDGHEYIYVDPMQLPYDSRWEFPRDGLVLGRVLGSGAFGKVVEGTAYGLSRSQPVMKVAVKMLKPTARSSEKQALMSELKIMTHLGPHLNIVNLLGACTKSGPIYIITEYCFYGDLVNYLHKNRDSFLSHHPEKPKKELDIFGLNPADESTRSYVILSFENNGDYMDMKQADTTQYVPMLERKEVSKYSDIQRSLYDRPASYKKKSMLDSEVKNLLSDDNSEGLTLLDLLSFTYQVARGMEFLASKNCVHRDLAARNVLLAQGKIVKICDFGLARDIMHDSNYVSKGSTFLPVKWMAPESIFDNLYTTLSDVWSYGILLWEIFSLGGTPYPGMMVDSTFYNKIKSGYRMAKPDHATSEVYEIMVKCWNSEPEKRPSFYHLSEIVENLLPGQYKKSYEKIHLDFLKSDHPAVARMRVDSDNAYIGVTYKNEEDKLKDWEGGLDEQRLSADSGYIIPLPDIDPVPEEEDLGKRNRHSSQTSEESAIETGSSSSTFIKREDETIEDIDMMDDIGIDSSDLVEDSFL
Aurora kinase B, sequence (Q96GD4 whole entry): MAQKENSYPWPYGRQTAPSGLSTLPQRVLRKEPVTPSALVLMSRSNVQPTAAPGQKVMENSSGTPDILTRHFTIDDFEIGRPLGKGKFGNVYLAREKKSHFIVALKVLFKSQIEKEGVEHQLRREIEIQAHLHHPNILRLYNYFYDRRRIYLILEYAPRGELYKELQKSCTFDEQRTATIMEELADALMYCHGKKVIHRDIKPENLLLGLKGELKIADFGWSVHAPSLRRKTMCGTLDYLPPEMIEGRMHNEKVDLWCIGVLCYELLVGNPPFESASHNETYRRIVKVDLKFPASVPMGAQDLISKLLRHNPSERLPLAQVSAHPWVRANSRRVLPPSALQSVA
Melanocortin receptor 4, sequence (P32245 whole entry): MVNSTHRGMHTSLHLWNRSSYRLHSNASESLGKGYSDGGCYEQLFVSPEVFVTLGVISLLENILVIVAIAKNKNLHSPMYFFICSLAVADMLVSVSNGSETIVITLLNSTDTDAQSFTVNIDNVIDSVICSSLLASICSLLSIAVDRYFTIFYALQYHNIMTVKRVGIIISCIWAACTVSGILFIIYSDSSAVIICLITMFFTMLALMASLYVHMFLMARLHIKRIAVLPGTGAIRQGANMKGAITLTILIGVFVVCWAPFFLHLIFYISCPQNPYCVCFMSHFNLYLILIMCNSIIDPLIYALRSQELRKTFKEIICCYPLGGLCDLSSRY
LIM domain kinase 1, sequence (P53667 whole entry, the tested form may be a part): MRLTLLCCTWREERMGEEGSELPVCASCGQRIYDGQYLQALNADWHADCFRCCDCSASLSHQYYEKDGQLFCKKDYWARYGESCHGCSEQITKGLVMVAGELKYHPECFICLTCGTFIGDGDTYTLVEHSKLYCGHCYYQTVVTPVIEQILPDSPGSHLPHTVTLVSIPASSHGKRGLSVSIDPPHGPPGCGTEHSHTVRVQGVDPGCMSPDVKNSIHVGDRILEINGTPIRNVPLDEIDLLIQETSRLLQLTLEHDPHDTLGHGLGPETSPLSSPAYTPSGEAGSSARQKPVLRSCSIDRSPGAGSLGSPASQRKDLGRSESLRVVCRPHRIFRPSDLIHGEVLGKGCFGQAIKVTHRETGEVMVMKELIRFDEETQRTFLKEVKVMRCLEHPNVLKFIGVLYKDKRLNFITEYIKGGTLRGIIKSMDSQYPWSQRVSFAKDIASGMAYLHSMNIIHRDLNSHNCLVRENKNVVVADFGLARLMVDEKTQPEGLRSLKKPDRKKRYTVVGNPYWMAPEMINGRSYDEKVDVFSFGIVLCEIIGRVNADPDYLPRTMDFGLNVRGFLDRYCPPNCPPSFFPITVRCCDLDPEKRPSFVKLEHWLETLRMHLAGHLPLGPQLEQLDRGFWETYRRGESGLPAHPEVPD
Mitogen-activated protein kinase 8, sequence (P45983 whole entry): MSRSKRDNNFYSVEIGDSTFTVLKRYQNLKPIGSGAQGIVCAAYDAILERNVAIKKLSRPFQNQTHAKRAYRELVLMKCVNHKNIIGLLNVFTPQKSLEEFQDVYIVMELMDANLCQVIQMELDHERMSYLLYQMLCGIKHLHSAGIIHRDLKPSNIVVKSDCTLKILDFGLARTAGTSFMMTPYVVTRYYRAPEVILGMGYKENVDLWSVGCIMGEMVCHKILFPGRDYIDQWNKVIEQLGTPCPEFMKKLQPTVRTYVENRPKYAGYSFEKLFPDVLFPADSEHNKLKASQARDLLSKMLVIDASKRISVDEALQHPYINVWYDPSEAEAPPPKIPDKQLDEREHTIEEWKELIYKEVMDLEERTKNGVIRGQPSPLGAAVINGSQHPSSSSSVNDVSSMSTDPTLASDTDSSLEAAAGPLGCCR

In the case of CC(C)Cn1c(N)c(C(=O)COC(=O)c2ccc([N+](=O)[O-])o2)c(=O)n(C)c1=O, the EC50 [1] is reported as 18.5 µM (active), the IC50 [2] is reported as 1.57 µM (active) and the IC50 [3] is reported as > 64.6 µM (inactive). For the same compound, the IC50 [4] was > 64.6 µM (inactive) and the AC50 [5] was > 20 µM (inactive).
In the case of CCSc1nc(=O)c2ccccc2[nH]1, the CC50 [6] is reported as > 100 µM (active), the CC50 [7] is reported as > 100 µM (active) and the CC50 [8] is reported as > 100 µM (active). The CC50 [9] was > 100 µM (active) and the CC50 [10] was > 100 µM (active).
With Nc1n[nH]c2c(-c3ccccc3)cccc12 the Ki [11] was 79.4 µM (active), the Ki [12] was 15.8 µM (active) and the Ki [13] was 79.4 µM (active). The Ki [14] was 39.8 µM (active), the Ki [15] was 63.1 µM (active) and the Ki [16] was 79.4 µM (active). The Ki [17] was 50.1 µM (active), the Ki [18] was 50.1 µM (active) and the Ki [19] was 50.1 µM (active). The Ki [20] was 50.1 µM (active), the Ki [21] was 79.4 µM (active) and the Ki [22] was 79.4 µM (active). For the same compound, the Ki [23] was 25.1 µM (active), the Ki [24] was 63.1 µM (active) and the Ki [25] was 50.1 µM (active).
In the case of O=S(=O)(NCCNCC=Cc1ccc(Br)cc1)c1cccc2cnccc12, the Ki [26] is reported as > 7.94 µM (inactive).
